Assay results as given in patent US12595250B2, “Substituted pyrimidine compounds as multifunctional radical quenchers and their uses” (ARIZONA BOARD OF REGENTS ON BEHALF OF ARIZONA STATE …, priority 2016, dated 2026).

What was measured:
[1] = In vitro microsomal stability assay; type: in vitro ADME; details: pH 7.4, bovine liver microsomes 1 mg/mL, 25 μM compound, 37° C., NADPH, read-out: Recovery (%) of compound after reaction with activated microsomes
Protocol: Liver tissues were diced into small pieces and then washed with isotonic sucrose buffer (0.25 M sucrose, 10 mM Tris-HCl, 0.5 mM EDTA, pH 7.8). The diced tissue was passed through a precooled meat grinder and mixed with three-fold ice cold sucrose buffer supplemented with a mixture of protease inhibitors. The suspension was homogenized in a Waring blender for 25 s at high speed. At this stage, the pH of the suspension was adjusted to 7.4 with 1 M Tris base. The homogenate was centrifuged for 20 min at 1200×g to remove cell debris. The supernatant suspension was homogenized in a tight fitting Teflon-glass Potter-Elvehjem homogenizer and then centrifuged twice at 10,000×g for 20 min, collecting the supernatant each time to remove mitochondria. The floating fat layer was carefully removed by filtering the supernatant through layers of cheesecloth. The supernatant was centrifuged at 150,000×g for 30 min (Beckman-Coulter ultracentrifuge, XL-100K-01, SW 55 Ti rotor). The pellet (microsomal fraction) was suspended in 0.25 M sucrose buffer containing 10 mM Tris-HCl, pH 7.4, with 20% (v/v) glycerol, and centrifuged once more at 150,000×g. The pellet was resuspended in sucrose buffer with 20% (v/v) glycerol. The protein concentration after resuspension was approximately 20 mg/mL, as determined by BCA protein assay (Pierce Chemical) using bovine serum albumin as a standard. Aliquots of microsomal suspensions were stored at −80° C.
In vitro metabolic stability was determined in bovine liver microsomes at a protein concentration of 1 mg/mL in 50 mM phosphate buffer mixture, pH 7.4, containing 5 mM MgCl2 in a final incubation volume of 0.5 mL. Each test compound was added to a final concentration of 25 μM. This mixture was pre-warmed to 37° C. prior to starting the reaction by the addition of β-NADPH to 1 mM final concentration. After incubation for 30 min at 37° C., the reaction was quenched by the addition of 1 mL of propanol, vortexed for 2 min and centrifuged at 15,000×g for 10 min to pellet the precipitated protein. The resulting supernatant was pipetted out and then concentrated under diminished pressure. A parallel incubation of the test compound with deactivated microsomes (quenched immediately with propanol) lacking β-NADPH served as a control and was run for each test agent to detect microsome-independent degradation. The sample was reconstituted in 130 μL MeOH and centrifuged again at 15,000×g for 3 min. The supernatant was removed and 4 μM fluorene was added as an internal standard before HPLC analysis. HPLC analyses were performed on a Zorbax SB-Phenyl reversed phase analytical (150×4.6 mm, 5 m) HPLC column using a mobile phase consisting of MeOH/H2O. A linear gradient of (50:50 MeOH/H2O→100:0 MeOH/H2O) was employed over a period of 14 min at a flow rate of 1 mL/min. Metabolic stability was expressed as percent of control remaining. The experiments were carried out in duplicate to verify the results.

FRDA lymphocytes [2] = test: Cellular ATP concentration assay (luciferin-luciferase); type: cell-based, Human; details: for activity at 1 µM / activity at 5 µM / activity at 20 µM: Homo sapiens, Lymphocyte, incubation 48 h, read-out: Total ATP level (% control) FRDA lymphocytes
FRDA lymphocytes [3] = test: Lipid peroxidation assay (C11-BODIPY 581/591, FACS); type: cell-based, Human; details: 5 mM DEM; for Suppression of lipid peroxidation, comparison of regioisomers (in words, FIG. 2): 0.1 μM (low concentration)
Protocol: The bar graph represents the percentage of the median mean fluorescence intensity of C11-BODIPY-green fluorescence relative to a treated control is shown. Data are expressed as the mean±SEM (n=3).
Human mitochondrial disease cell lines, Friedreich's ataxia lymphocytes (GM15850), and Leigh's syndrome lymphocytes (GM13740) were obtained from Coriell Cell Repositories (Camden, NJ). Lymphocytes were cultured in RPMI-1640 medium (Gibco, Life Technologies, Grand Island, NY) with 15% fetal calf serum, 2 mM glutamine (HyClone, South Logan, UT) and 1% penicillin-streptomycin antibiotic supplement (Cellgro, Manassas, VA). Cells were passaged every other day to maintain them in log phase growth and kept at a nominal concentration of 5-10×10^5 cell/mL. A CoQ10 deficient lymphocyte cell line (GM17932) was obtained from Coriell Cell Repositories. […]
Lipid peroxidation was measured by a quantitative FACS assay using the oxidation-sensitive fatty acid probe C11-BODIPY^581/591 (Molecular Probe) as described in art (Goldschmidt, R., et al. Bioorg. Med. Chem. 2013, 21, 969; Khdour, 0. M., et al. ACS Med. Chem. Lett. 2013, 4, 724; and Arce, P. M., et al. Bioorg. Med. Chem. 2012, 20, 5188). […] Cells were resuspended in phosphate buffered saline and were analyzed immediately by FACS (C6 Accuri, BD Biosciences, San Jose, CA), using a 488 nm excitation laser and the FL1-H channel 530±15 nm emission filter. The generation of lipid peroxide was detected as a result of the oxidation of the polyunsaturated butadienyl portion of the dye, resulting in a shift of the fluorescence emission peak from red to green. In each analysis, 10,000 events were recorded after cell debris were electronically gated out. […] Results were expressed as a percentage of the median mean fluorescence intensity of C11-BODIPY-green relative to the treated control (DEM).

FRDA lymphocytes [4] = test: Reactive oxygen species (ROS) assay (DCFH-DA, FACS); type: cell-based, Human; details: high concentration, 5 mM DEM
Protocol: The cells were stained with 2, 7-dichlorodihydrofluorescein diacetate (DCFH-DA) for 15 minutes prior to analysis. The samples were analyzed immediately by flow cytometry (C6 Accuri, BD Biosciences, San Jose, CA). The bar graph represents the percentage of the median mean fluorescence intensity of DCF fluorescence relative to a DEM-treated control. Data shown represent the mean±SEM of two different experiments run as duplicates.
Human mitochondrial disease cell lines, Friedreich's ataxia lymphocytes (GM15850), and Leigh's syndrome lymphocytes (GM13740) were obtained from Coriell Cell Repositories (Camden, NJ). […]
Quantitative analysis of intracellular ROS levels in FRDA lymphocytes, challenged with 5 mM diethyl maleate (DEM) in presence or absence of the test compounds, was obtained by FACS analysis using a dichlorodihydrofluorescein diacetate probe (DCFH-DA), as described in art (Goldschmidt, R., et al. Bioorg. Med Chem. 2013, 21, 969; Arce, P. M., et al. Bioorg. Med Chem. 2012, 20, 5188; Arce, P. M., et al. ACS Med Chem. Lett. 2011, 2, 608; Khdour, O. M., et al. Pharm. Res. 2011, 28, 2896; Lu, J., et al. Bioorg. Med Chem. 2010, 18, 7628; and Cai, X., et al. Bioorg. Med Chem. 2012, 20, 3584). […] The samples were analyzed immediately by flow cytometry (C6 Accuri, BD Biosciences, San Jose, CA), using a 488 nm excitation laser and the FL1-H channel 530±15 nm emission filter. […]

Structure (SMILES) | recovery at 30 min, 25 μM [1] | activity at 1 µM (FRDA lymphocytes [2]) | activity at 5 µM (FRDA lymphocytes [2]) | activity at 20 µM (FRDA lymphocytes [2]; 20 μM) | Suppression of lipid peroxidation, comparison of regioisomers (in words, FIG. 2) (FRDA lymphocytes [3]) | Suppression of ROS (in words, FIG. 3) (FRDA lymphocytes [4]) | Suppression of lipid peroxidation (in words, FIG. 2) (FRDA lymphocytes [3]; high concentration) | Inhibition of ATP production (in words) (FRDA lymphocytes [2]; 20 μM)
CCCCCCCCCCCCCCc1nc(N2CCC2)nc(N2CCC2)c1O [Compound 4b, 2,4-Di-(azetidin-1-yl)-6-tetradecylpyrimidin-5-ol] | 63 ± 5% | 86 ± 3% | 46 ± 7% | 1% |  |  |  | 
CCCCCCCCCCCCCCCCc1nc(OC2CCC2)nc(OC2CCC2)c1O [Compound 3c, 2,4-Dicyclobutanoxy-6-hexadecylpyrimidin-5-ol] | 60 ± 5% | 98 ± 2% | 102 ± 2% | 96 ± 2% |  |  |  | 
CCCCCCCCCCCCCCCCc1nc(OC2CCC2)nc(N2CCC2)c1O [Compound 2c, 4-(Azetidin-1-yl)-2-cyclobutanoxy-6-hexadecylpyrimidin-5-ol] | 63 ± 9% | 102 ± 2% | 110 ± 4% | 99 ± 2% | better than 1c |  |  | 
CCCCCCCCCCCCCCc1nc(OC2CCC2)nc(OC2CCC2)c1O [Compound 3b, 2,4-Dicyclobutanoxy-6-tetradecylpyrimidin-5-ol] | 72 ± 3% | 99 ± 1% | 98 ± 2% | 94 ± 2% |  | appeared to be efficient | slightly efficient | 
CCCCCCCCCCCCCCCCc1nc(N2CCC2)nc(N2CCC2)c1O [Compound 4c, 2,4-Di-(Azetidin-1-yl)-6-hexadecylpyrimidin-5-ol] | 62 ± 3% | 92 ± 1% | 61 ± 9% | 1 ± 2% |  |  |  | 
CCCCCCCCCCCCCCCCc1nc(N2CCC2)nc(OC2CCC2)c1O [Compound 1c, 2-(Azetidin-1-yl)-4-cyclobutoxy-6-hexadecylpyrimidin-5-ol] | 65 ± 8% | 100 ± 1% | 114 ± 3% | 103 ± 2% |  |  |  | 
Cc1nc(N2CCC2)nc(OC2CCC2)c1O [Compound 1a, 2-(Azetidin-1-yl)-4-cyclobutanoxy-6-methylpyrimidin-5-ol] |  | 100 ± 1% | 98 ± 1% | 96 ± 2% |  |  |  | 
Cc1nc(OC2CCC2)nc(OC2CCC2)c1O [Compound 3a, 2,4-Dicyclobutanoxy-6-methylpyrimidin-5-ol] |  | 101 ± 1% | 99 ± 2% | 97 ± 3% |  |  |  | 
Cc1nc(N2CCC2)nc(N2CCC2)c1O [Compound 4a, 2,4-Di-(azetidin-1-yl)-6-methylpyrimidin-5-ol] |  | 101 ± 2% | 101 ± 2% | 85 ± 9% |  |  |  | this effect seems less obvious
CCCCCCCCCCCCCCc1nc(N2CCC2)nc(OC2CCC2)c1O [Compound 1b, 2-(Azetidin-1-yl)-4-cyclobutanoxy-6-tetradecylpyrimidin-5-ol] | 63 ± 8% | 105 ± 3% | 102 ± 1% | 94 ± 2% |  |  |  | 
CCCCCCCCCCCCCCc1nc(OC2CCC2)nc(N2CCC2)c1O [Compound 2b, 4-(Azetidin-1-yl)-2-cyclobutanoxy-6-tetradecylpyrimidin-5-ol] | 77% | 109 ± 3% | 105 ± 2% | 54 ± 6% | significantly more efficient than 1b |  |  | 
Cc1nc(OC2CCC2)nc(N2CCC2)c1O [Compound 2a, 4-(Azetidin-1-yl)-2-cyclobutanoxy-6-methylpyrimidin-5-ol] |  | 101 ± 1% | 99 ± 3% | 96 ± 3% |  |  |  | 
